Measurements: patent US12617799B2, “Pyrazolopyrimidinone compounds” (Orphagen Pharmaceuticals, Inc., priority 2021, dated 2026)

Tests used:
[1] = system: rat Leydig tumor cell line R2C; experiment: R2C proliferation assay for SF-1 antagonists (EdU incorporation); assay type: cell-based; conditions: R2C cells, EdU incorporation, read-out: R2C: EC50
Procedure: SF-1 regulates progenitor cell formation and survival in adult Leydig cells. Anti-proliferative effects of SF-1 antagonists using a SF-1+ rat Leydig tumor cell line, R2C, was investigated. Cell proliferation was measured by detecting DNA incorporation of EdU, a nucleoside analogue that can be fluorescently tagged after cell fixation.
Proliferation of the rat Leydig tumor cell line R2C (ATCC® CCL-97™) was assessed using 5-ethynyl-2′-deoxyuridine (EdU), a nucleoside analogue incorporated during DNA synthesis that can be fluorescently tagged after cell fixation. Cycloheximide, a protein synthesis inhibitor, was used as a positive control for the assay.
R2C cells are maintained according to a protocol provided by the American Type Culture Collection (ATCC). At the time of assay, R2C cells were diluted to 1.0 million cells/mL with culture medium (F12 medium supplemented with 2% FBS and 1% Penicillin-Streptomycin) and 50 uL of cell suspension seeded into each well of 384-well clear bottom plates. The assay plates were incubated in a humidified, 37° C., 6% CO2 atmosphere for 24 hours. Serially diluted SF-1 antagonists, cycloheximide or vehicle (DMSO) were then applied to the R2C cells and incubated in a humidified, 37° C., 6% CO2 atmosphere for two days. EdU (Invitrogen), at a final concentration of 5 μM, was added to the cells and incubated for an additional 16 hours, after which cells were fixed with 10% formalin.
Cells were then washed and permeabilized in 0.5% TritonX-100/PBS solution at RT for 1 hour. EdU incorporation was detected by labeling EdU with 6-FAM azide (Lumiprobe) using a copper (I)-catalyzed Click reaction between an azide and alkyne. The reaction mixture consists of 5 mM ascorbic acid, 1 mM CuSO4, 1 μM 6-FAM azide dissolved in PBS buffer. […] For data normalization, the average fluorescence of DMSO wells was defined as 100%, and average fluorescence of 10 μM cycloheximide wells was defined as 0%. Curve fitting and EC50 determination were performed using the variable slope sigmoidal dose-response analysis.
R2C cells were routinely cultured in R2C culture medium. To assay SF-1 antagonist inhibitory activity, R2C cells were resuspended in the R2C plating medium and plated into a 384 well-clear bottom black plate at 20,000 cells/50 μL/well. […] 10 μL EdU plating solution were then dispensed into each well of assay plate incubated at 37° C., 6% CO2 for two days.
R2C proliferation is measured by detecting the fluorescent labelled EdU. The R2C assay plates were fixed by dispense 60 μL of 10% formalin into each well, and the plates were incubated at room temperature for 1 hour on an orbital shaker. The plates were washed with 80 μL of PBS three times, and cells were permeabilized by treating with 100 μL of PBS-0.5% TritonX-100 at RT for 1 hour on an orbital shaker. The plates were washed with 80 μL of PBS three times, and after the last wash, 25 μL of PBS was dispensed into each well. 25 μL of 2× mounting mix solution was then added into each well of fixed cells, and the plates were incubated at RT for 30 min in the dark on an orbital shaker. The cells were washed with 80 μL of PBS, three times, and after the last wash, 25 μL of PBS was dispensed into each well. […] The cells were washed with 80 μL of PBS, three times, and after the last wash, 50 μL of PBS was dispensed into each well. Assay plates were sealed with aluminum foil, and fluorescence was measured using a Envision microplate reader.
The % of control for the proliferation activity was calculated according to the following equation: % of control=100×(A−C)/(B−C) Equation • A: fluorescence count in the test article-treated R2C cells • B: mean fluorescence count in the vehicle-treated R2C cells • C: mean fluorescence count in the 10 μM cycloheximide-treated R2C cells

human SF-1 = target: T1, human SF-1 (Homo sapiens, UniProt Q13285); experiment: SF-1 Luc assay (Gal4DBD-SF-1LBD luciferase reporter in transfected CHO-K1 cells); assay type: cell-based; conditions: CHO-K1 cells transfected with GAL4-SF-1 plasmid, 40 hours incubation; read-out: hSF-1-Luc: EC50
T1 construct: expressed in transfected cells; host or cells: CHO-K1 cells (Chinese hamster ovary), transient cotransfection with pG5luc
T1 sequence (Q13285 198-461 limits assumed): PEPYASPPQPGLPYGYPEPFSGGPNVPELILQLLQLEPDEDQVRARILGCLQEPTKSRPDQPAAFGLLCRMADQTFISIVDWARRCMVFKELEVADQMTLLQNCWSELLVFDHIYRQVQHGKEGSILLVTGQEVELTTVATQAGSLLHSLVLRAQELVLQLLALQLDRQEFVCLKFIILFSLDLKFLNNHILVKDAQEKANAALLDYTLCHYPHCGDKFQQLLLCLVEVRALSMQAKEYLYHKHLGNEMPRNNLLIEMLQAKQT
Excerpt: BamHI and XbaI sites introduced by the primers […] (forward) and […] (reverse) were used for subcloning the amplicon into pFA-CMV.
Cells were routinely cultured by splitting them from 1:10 to 1:20. […] Four hours after transfection, cells were trypsinized and suspended to a concentration of 1.6×10^5 cells/ml in supplemented Ham's F-12 media.
Assays: The collected cells were resuspended in the culture medium and plated into a 384 well-white plate (Corning Life Sciences, Acton, MA) at 8,000 cells/50 μL/well.
Measurement of SF-1 Transcriptional Activity: SF-1 transcriptional activity was detected as the intracellular Luc activity using SteadyLite Plus HTS Reporter Gene Assay System. After the measurement of the cell viability, the culture media in the 384 well-plate were completely removed. Then, 30 μL of the Luc substrate solution was added into each well and incubated for 10 min at room temperature. After the incubation, luminescence of each well was measured by a microplate reader.
Calculation of the SF-1 Transcriptional Activity (% of Control): The % of control for the transcriptional activity was calculated according to the following equation: % of control=A/B×100 Equation • A: luminescence count in the test article-treated CHO cells transfected with GAL4-SF-1 plasmid • B: mean luminescence count in the vehicle-treated CHO cells transfected with GAL4-SF-1 plasmid

Row | EC50 [1] | EC50 (human SF-1) | Structure (SMILES)
1 | 1000 to 10000 nM | 1000 to 10000 nM | COc1ccc(NC(=O)Cn2cnc3c(Nc4ccc(C(F)(F)F)cn4)nn(C)c3c2=O)cc1F [Compound 64, N-(3-fluoro-4-methoxyphenyl)-2-(1-methyl-7-oxo-3-((5-(trifluoromethyl)pyridin-2-yl)amino)-1,7-dihydro-6H-pyrazolo[4,3-d]pyrimidin-6-yl)acetamide]
2 | < 200 nM | < 200 nM | Cc1cc(C(C)(C)S(C)(=O)=O)ccc1NC(=O)Cn1cnc2c(Nc3ccc(C(F)(F)F)cc3)nn(C)c2c1=O [Compound 18, N-(2-methyl-4-(2-(methylsulfonyl)propan-2-yl)phenyl)-2-(1-methyl-7-oxo-3-((4-(trifluoromethyl)phenyl)amino)-1,7-dihydro-6H-pyrazolo[4,3-d]pyrimidin-6-yl)acetamide]
3 | 1000 to 10000 nM | 200 to 1000 nM | Cn1nc(Nc2ccc(C(F)(F)F)cc2)c2ncn(CC(=O)N[C@H]3CC[C@H](O)CC3)c(=O)c21 [Compound 28, N-((trans)-4-hydroxycyclohexyl)-2-(1-methyl-7-oxo-3-((4-(trifluoromethyl)phenyl)amino)-1,7-dihydro-6H-pyrazolo[4,3-d]pyrimidin-6-yl)acetamide]
